Patent US8129527B2, “Analogs of dehydrophenylahistins and their therapeutic use” (Nereus Pharmacuticals, Inc., priority 2006, dated 2012)
Read-outs that look alike come from different tables or passages of the source.

Tests used:
[1] = system: PC-3 prostatic adenocarcinoma cells; assay: Tumor cytotoxicity assay, resazurin fluorescence, 48 h (Example 6); assay type: cell-based, human; settings: Homo sapiens; Table 2; read-out: EC50 (nM) PC-3
Description: 10× concentrated serial dilutions of the two compounds were prepared in appropriate culture medium for final concentrations ranging from 2.0×10^−5 M to 2.0×10^−10 M. Ten μl volumes of the 10× serial dilutions were added to the test wells in triplicate and the plates returned to the incubator for 48 hours.
(§1) Following 48 hours of drug exposure 10 μl of 0.2 mg/ml resazurin (obtained from Sigma-Aldrich Chemical Co.) in Mg^2+, Ca^2+ free PBS was added to each well and the plates were returned to the incubator for 3-4 hours. […] Resazurin dye without cells was used to determine the background, which was subtracted from the data for all experimental wells. The data were analyzed using Prism software (GraphPad Software).
PC-3, a human prostate adenocarcinoma, was maintained in F12K complete medium (F12K medium supplemented with 10% FBS; 2 mM Glutamine; 1% HEPES; and Pen/Strep at 100 IU/ml and 100 µg/ml, respectively).

[2] = system: Jurkat cells (human T cell leukemia line); assay: DNA fragmentation (DNA laddering); assay type: cell-based
Description: A late stage characteristic of apoptosis is internucleosomal DNA cleavage that results in a distinctive ladder pattern that can be visualized by gel electrophoresis.

Trichophyton rubrum = assay: Antifungal susceptibility testing, broth dilution (MIC/MFC); assay type: cell-based; settings: in words
Procedure, shortened: (§2)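 Tested against two isolates per species (one for C. glabrata). After MIC, fungicidal concentration determined by plating 0.1 μl from MIC and each higher concentration.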

Candida albicans = assay: as above; assay type: cell-based; settings: Candida albicans; C. albicans 90028; read-out: MIC
Procedure, shortened: as §2

Candida glabrata = assay: as above; assay type: cell-based; settings: Nakaseomyces glabratus; C. glabrata; read-out: MIC
Procedure, shortened: as §2

Aspergillus fumigatus = assay: as above; assay type: cell-based; settings: Aspergillus fumigatus, read-out: MIC
Procedure, shortened: as §2

[3] = system: Trichophyton mentagrophytes; assay: as above; assay type: cell-based; settings: in words
Description: Specifically, disclosed compounds were evaluated alongside commercially available microtubulin inhibitors as well as recognized antifungal agents. […].
Microorganisms against which these compounds were tested included: Candida albicans, Candida glabrata, Aspergillus fumigatus, Trichophyton rubrum, Trichophyton mentagrophytes, Epidermophyton floccosum. With the exception of Candida glabrata (one isolate), two isolates of each species were tested.
Drug concentrations were 0.03-16 μg/ml for the investigational compounds, 0.015-8 μg/ml for itraconazole and griseofulvin.
The minimum lethal concentration (MLC) was determined by plating […] from the MIC concentration and each concentration above the MIC. […] When a MIC was obtained, a minimum fungicidal concentration (MFC) was determined to assess the fungistatic/fungicidal nature of the compound. […] The compound is scored as fungistatic if the cells are able to resume growth and fungicidal if no regrowth is possible because the compound had killed the organisms.

[4] = system: P388 murine leukemia cells; assay: Cytotoxic effect in P388 cells; assay type: cell-based; settings: Mus musculus, P388, read-out: IC50 (nM) P-388; Table 2
Description: The cytotoxic effects of phenylahistin, dehydrophenylahistin and various derivatives of dehydrophenylahistin were examined in P388 murine leukemia cells, HT-29 human colon cells, and PC-3 prostatic adenocarcinoma cells.

HT-29 human colon cells = assay: Tumor cytotoxicity assay, resazurin fluorescence, 48 h (Example 6); assay type: cell-based
[5] = system: MDA-231 human breast tumor; assay: MDA-231 Human Breast Tumor Orthotopic Xenograft Model (mammary fat pad); assay type: in vivo, nude mice; settings: Breast MDA-231 (1 study); Paclitaxel qdx5 alone
Description: (§3) The animals used were: female nude mice (nu/ni) (MDA-231 study) or B6D2F1 (B16-F10 studies) mice between 5 and 6 weeks of age (˜20 g, Harlan); group size was 10 mice per group unless otherwise indicated.
(§4) The cell lines used were: MDA-MB-231 human breast tumor and B16-F10 murine melanoma cells.
(§5) NPI compounds were administered as monotherapy via the intraperitoneal route at the doses indicated for the individual study; for the combination studies the selected reference chemotherapy agents were injected 15-30 min prior to the NPI compound.
Female nude mice were injected in the mammary fat pad with 2×10^6 MDA-231 cells harvested from in vitro cell culture. When the tumor size reached 5 mm×5 mm (about 14-28 days) the animals were matched into treatment and control groups. The study then proceeded as described for the HT-29 model, using paclitaxel as the standard chemotherapy agent.
In this model unless otherwise noted for the individual study, the test compounds were administered via the intraperitoneal route on Days 1, 4, 8, 11 and 15 (q3dx5); paclitaxel was administered via the intraperitoneal route on Days 1-5 (qdx5).
This model involves the placement of the human tumor tissue into the mouse mammary fat pad, a surrogate of the natural environment. In this manner the possibility of a positive effect due to a specific action on the subcutaneous vascular bed is avoided.

[6] = system: B16-F10 murine melanoma cells; assay: B16-F10 Metastatic Murine Melanoma Model; assay type: in vivo, B6D2F1 mice; settings: monotherapy, lung surface metastases day 16
Description: as §3, §4, §5
Mice received B16-F10 cells (prepared from an in vitro cell culture of B16-F10 cells) by the iv route on Day 0. On Day 1 mice were randomized into treatment and control groups and treatment commenced. Mice were weighed twice weekly, starting on Day 1. All mice are sacrificed on Day 16, the lungs removed, weighed and the surface colonies counted. Results are expressed as mean colonies of treated mice/mean colonies of control mice (T/C)×100%). The metastasis growth inhibition (MGI) is this number subtracted from 100%. Paclitaxel was the standard chemotherapy agent used in this study.
In this model unless otherwise noted for the individual study, the test compounds were administered via the intraperitoneal route on Days 1-5 (qdx5); paclitaxel was administered intravenously on Days 1-5(qdx5).

[7] = system: MES-SA/Dx5 multidrug resistant; assay: Cell growth inhibition assay, resazurin (Example 11); assay type: cell-based, human
Description: (§6) Human uterine sarcoma (MES-SA; CRL-1976), its multidrug resistant derivative (MES-SA/Dx5; CRL-1977), human acute promyelocytic leukemia cells (HL-60; CCL-240) and its multidrug resistant derivative (HL-60/MX2; CRL-2257) were purchased from ATCC and maintained in appropriate culture media. The cells were cultured in an incubator at 37° C. in 5% CO2 and 95% humidified air.
(§7) For cell growth inhibition assays, MES-SA and MES-SA/Dx5 cells were both seeded at 3×10^3 cells/well in 90 μl complete media into 96 well (Corning; 3904) black-walled, clear-bottom tissue culture plates and the plates were incubated overnight to allow cells to establish and enter log phase growth. HL-60 and HL-60/MX2 cells were both seeded at 5×10^4 cells/well in 90 μl complete media into 96 well plates on the day of compound addition. 20 mM stock solutions of the compounds were prepared in 100% DMSO and stored at −80° C. […] Ten μl volumes of the 10× serial dilutions were added to the test wells in triplicate and the plates returned to the incubator for 48 hours. The final concentration of DMSO was 0.25% in all samples.
as §1, with “exposure,” for “exposure”, “phosphate buffered saline” for “PBS”, “3-6” for “3-4”, “dye in medium” for “dye”, “wells.” for “wells. The data were analyzed using Prism software (GraphPad Software).”
(§8) The multidrug resistant MES-SA/Dx5 tumor cell line was derived from the human uterine sarcoma MES-SA tumor cell line and expresses elevated P-Glycoprotein (P-gp), an ATP dependent efflux pump. The data in Table 19 summarize the growth inhibitory effects of NPI-2421, NPI-2463, NPI-2503, NPI-2504 and NPI-2506 against MES-SA and its multidrug resistant derivative MES-SA/Dx5. Paclitaxel, a known substrate of the P-gp pump was included as a control.

[8] = system: MES-SA human uterine sarcoma; assay: as above; assay type: cell-based; settings: mean ± standard deviation of three independent experiments
Description: as §6, §7
as §1, with “exposure,” for “exposure”, “phosphate buffered saline” for “PBS”, “3-6” for “3-4”, “dye in medium” for “dye”, “wells.” for “wells. The data were analyzed using Prism software (GraphPad Software).”
as §8

[9] = system: DU-145 human prostate tumor; assay: DU-145 Human Prostate Tumor Xenograft Model; assay type: in vivo, nude mice; settings: taxotere alone
Description: When the tumors reached 5 mm×5 mm (at about 13-17 days) the animals were matched into treatment and control groups.
In this model unless otherwise noted for the individual study, test compounds were administered via the intraperitoneal route on Days 1, 3, 5, 8 and 11 (q3dx5); taxotere was administered intravenously on Days 1, 3 and 5 (q2dx3).

MCF-7 human breast tumor = assay: MCF-7 Human Breast Tumor Xenograft Model; assay type: in vivo, nude mice; settings: Breast MCF-7 (2 studies); Taxotere Days 1, 3, 5 alone
Description: (§9) Animals used were (exceptions are indicated for individual studies): female nude mice (nu/nu) between 5 and 6 weeks of age (˜20 g, Harlan); group size was 9-10 mice per group unless otherwise indicated.
(§10) Selected novel compounds were administered as monotherapy via the intraperitoneal (i.p.) route at the doses indicated for the individual study; for the combination studies the selected reference chemotherapy agents were injected 15-30 min prior to the compound.
(§11) Saline dilutions are used to achieve the injection concentrations used for the reference compounds.
Female nude mice (˜20 g) were implanted s.c. with 21-day release estrogen (0.25 mg) pellets 24 hours prior to the s.c. implantation with MCF-7 tumor fragments (harvested from s.c. tumors in nude mice hosts). The study then proceeded as described for the HT-29 model, using taxotere as the standard chemotherapy agent.
In this model unless otherwise noted for the individual study, the novel compounds were injected via the intraperitoneal route daily on Days 1-5, inclusive (qdx5); taxotere was administered intravenously on Days 1, 3 and 5 (qodx3).
The doses of the compounds were administered on Days 1, 2, 3, 4, and 7; Taxotere was administered on Days 1, 3 and 7.

[10] = system: A549 human non small cell lung tumor; assay: A549 Human Lung Tumor Xenograft Model; assay type: in vivo, nude mice
Description: as §9, §10, §11
Animals were implanted s.c. by trocar with fragments of A549 tumors harvested from s.c. growing tumors in nude mice hosts. When the tumor size reached 5 mm×5 mm (about 10-17 days) the animals were matched into treatment and control groups.

[11] = system: HL-60/MX-2 (Mitoxantrone-Resistant); assay: Drug resistant cell line pair, cytotoxicity (Example 10B); assay type: cell-based, human; settings: HL-60 Resistant IC50 relative to HL-60 Sensitive
Description: 2) Human Acute Promyelocytic Leukemia Cell Line Pair: HL-60 (Mitoxantrone-Sensitive) and HL-60/MX-2 (Mitoxantrone-Resistant)

Jurkat cells = assay: cells; assay type: cell-based
[12] = system: MES-SA/Dx5 (Taxol Resistant) human uterine sarcoma; assay: Drug resistant cell line pair, cytotoxicity (Example 10B); assay type: cell-based; settings: vs MES-SA
Description: 1) Human Uterine Sarcoma Tumor Cell Line Pair: MES-SA (Taxol Sensitive) and MES-SA/Dx5 (Taxol Resistant).

[13] = system: HL-60/MX2 multidrug resistant; assay: Cell growth inhibition assay, resazurin (Example 11); assay type: cell-based, human
Description: as §6, §7
as §1, with “exposure,” for “exposure”, “phosphate buffered saline” for “PBS”, “3-6” for “3-4”, “dye in medium” for “dye”, “wells.” for “wells. The data were analyzed using Prism software (GraphPad Software).”
HL-60/MX2 is a multidrug resistant tumor cell line derived from the human promyelocytic leukemia cell line, HL-60 and expresses reduced topoisomerase II activity. The data presented in Table 20 summarize the growth inhibitory effects of NPI-2421, NPI-2463, NPI-2503, NPI-2504 and NPI-2506 against HL-60 and its multidrug resistant derivative HL-60/MX2. Mitoxantrone, the topoisomerase II targeting agent was included as a control.

[14] = Lung A549 (1 study), Taxotere Days 1, 3, 5 alone

Description for human hepatic P450s: In the recent his study, (±)-phenylahistin was treated with rat hepatic microsome or human hepatic P450s.

With `C=CC(C)(C)c1[nH]cnc1/C=c1\[nH]c(=O)/c(=C/c2ccccc2)[nH]c1=O` [KPU-1, Dehydrophenylahistin] the EC50 [1] was 4.7 nM, the “DNA laddering potency compared with KPU-2” value [2] was “much less potent” and the “antifungal potency versus T. rubrum” value (Trichophyton rubrum) was “significantly less potent than the other compounds”. For the same molecule, the MIC (Candida albicans) was > 68 µg/mL, the MIC (Candida glabrata) was > 68 µg/mL and the MIC (Aspergillus fumigatus; A. fumigatus isolate #1) was > 16 µg/mL. For the same molecule, the MIC (Aspergillus fumigatus; A. fumigatus isolate #2) was > 16 µg/mL, the “antifungal potency versus the sensitive T. mentagrophytes isolate” value [3] was “weaker but more comparable to the others” and the IC50 [4] was 36 ± 12.8 nM. The EC50 (HT-29 human colon cells; Homo sapiens, HT-29, Table 2, read-out: EC50 (nM) HT-29) was 48 nM, the EC50 (HT-29 human colon cells; Homo sapiens, HT-29, Table 5, synthetic potent dehydroPLH derivatives, read-out: EC50) was 48 nM and the EC50 (HT-29 human colon cells; Table 6, proliferation of HT-29 cells, read-out: EC50) was 48 nM.

With `CC(=O)O[C@H]1C(=O)[C@@]2(C)[C@H]([C@H](OC(=O)c3ccccc3)[C@]3(O)C[C@H](OC(=O)[C@H](O)[C@@H](NC(=O)c4ccccc4)c4ccccc4)C(C)=C1C3(C)C)[C@]1(OC(C)=O)CO[C@@H]1C[C@@H]2O` [Paclitaxel, reference compound] the “Tumor Growth Inhibition (%) Reference Agent” value [5] was 53%, the “Tumor Regression (#/total) Reference Agent” value (from here on “Tumor Regression”) [5] was 1/10 and the “MGI (metastasis growth inhibition)” value [6] was 35.0%. For the same molecule, the EC50 ([7]; Homo sapiens, MES-SA/Dx5, mean ± standard deviation of three independent experiments) was 2 ± 0.15 µM, the Fold change ([7]; ratio of EC50 values (MES-SA/Dx5:MES-SA)) was 417 and the “less active against the resistant MES-SA/Dx5 cells” value ([7]; vs MES-SA) was ~400 times. For the same molecule, the EC50 [8] was 0.0048 ± 0.0021 µM.

With `CC(=O)O[C@@]12CO[C@@H]1C[C@H](O)[C@@]1(C)C(=O)[C@H](O)C3=C(C)[C@@H](OC(=O)[C@H](O)[C@@H](NC(=O)OC(C)(C)C)c4ccccc4)C[C@@](O)([C@@H](OC(=O)c4ccccc4)[C@H]21)C3(C)C` [Taxotere, reference compound] the “TGI vs NCI criterion” value [9] was “did not reach the NCI established criterion for a positive effect”, the “Tumor Regression” value (MCF-7 human breast tumor) was 0/20 and the “Tumor Growth Inhibition (%) Reference Agent” value [10, 14] was 26%. The “Tumor Regression” value [10, 14] was 0/10 and the TGI ([10]; taxotere alone) was 26.1%.

For `O=C1c2c(O)ccc(O)c2C(=O)c2c(NCCNCCO)ccc(NCCNCCO)c21` [mitoxantrone, Mitoxantrone, reference compound], the “Ratio to Sensitive” value [11] was 24.1, the IC50 (Jurkat cells; Homo sapiens, Jurkat, read-out: Cytotoxicity Potency IC50) was 0.041 µM and the “Cytotoxicity Efficacy % Cell Death” value (Jurkat cells; human) was 99%. For the same molecule, the “reduced susceptibility of the MES-SA/DX5 cell line” value [12] was 20 fold, the Fold change ([13]; ratio of EC50 values (HL-60/MX2:HL-60)) was 26 and the “less active against the resistant HL-60/MX2 cells” value ([13]; vs HL-60) was ~26 times.

In the case of (±)-phenylahistin, the “major metabolites P1 and P3, share of the recovered metabolites” value (human hepatic P450s) is reported as “more than 60%” and the metabolites detected (human hepatic P450s) is reported as “at least seven metabolites were detected”.

For “phenylahistin [halimide, reference compound]”, the “DNA laddering potency compared with KPU-2” value [2] was “much less potent”.
